In ChEMBL document CHEMBL1152837, “Ligand binding to nucleic acids and proteins: Does selectivity increase with strength?” (Eur J Med Chem, 2008):

Tests used:
Nucleic Acid [1] = test: Binding affinity to poly(dA).poly(dT) DNA assessed as change in melting temperature; format: nucleic-acid assay
Nucleic Acid [2] = test: Binding affinity to poly(dA).poly(dT) duplex DNA assessed as ratio of KA to KB by ESI-MS analysis; format: nucleic-acid assay
[3] = biological target: Kappa-type opioid receptor (Rattus norvegicus, UniProt P34975); test: Binding affinity to kappa opioid receptor in rat brain membrane; format: cell membranes
Kappa-type opioid receptor, sequence (P34975 whole entry): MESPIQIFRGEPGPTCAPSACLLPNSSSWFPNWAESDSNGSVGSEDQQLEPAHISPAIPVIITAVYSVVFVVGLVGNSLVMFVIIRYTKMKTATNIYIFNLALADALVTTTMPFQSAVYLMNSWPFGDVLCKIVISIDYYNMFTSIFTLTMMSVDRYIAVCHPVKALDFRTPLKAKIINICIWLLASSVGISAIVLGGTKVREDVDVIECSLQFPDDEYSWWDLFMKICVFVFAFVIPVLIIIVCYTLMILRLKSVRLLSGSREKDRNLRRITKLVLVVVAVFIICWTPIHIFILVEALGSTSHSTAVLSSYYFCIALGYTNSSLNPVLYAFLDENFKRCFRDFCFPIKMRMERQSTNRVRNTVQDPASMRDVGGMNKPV

[4] = biological target: Delta-type opioid receptor (Rattus norvegicus, UniProt P33533); test: Binding affinity to delta opioid receptor in rat brain membrane; format: cell membranes
Delta-type opioid receptor, sequence (P33533 whole entry): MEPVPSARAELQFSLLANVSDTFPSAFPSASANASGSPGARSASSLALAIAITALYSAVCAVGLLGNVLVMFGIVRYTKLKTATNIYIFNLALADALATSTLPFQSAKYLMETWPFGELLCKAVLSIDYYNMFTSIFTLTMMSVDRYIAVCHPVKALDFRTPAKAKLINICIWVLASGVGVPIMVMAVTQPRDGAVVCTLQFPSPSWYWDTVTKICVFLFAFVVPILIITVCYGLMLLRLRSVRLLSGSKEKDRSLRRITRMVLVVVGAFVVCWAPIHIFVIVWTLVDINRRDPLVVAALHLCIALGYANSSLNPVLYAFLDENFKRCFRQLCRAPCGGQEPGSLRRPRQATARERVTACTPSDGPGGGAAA

Nucleic Acid [5] = test: Binding affinity to poly(A).poly(U) RNA assessed as change in melting temperature; format: nucleic-acid assay

`COc1cccc2c1C(=O)c1c(O)c3c(c(O)c1C2=O)C[C@@](O)(C(=O)CO)C[C@@H]3O[C@H]1C[C@H](N)[C@H](O)[C@H](C)O1` gave a ΔTm (Nucleic Acid [1]) of 13 °C.
Work on `CCOc1ccc(-c2nc3cc(-c4nc5cc(N6CCN(C)CC6)ccc5[nH]4)ccc3[nH]2)cc1` yielded a Ratio (Nucleic Acid [2]) of 3.7.
`COc1cc2cc3c4cc(OC)c(OC)cc4cc[n+]3c(C)c2cc1OC` gave a ΔTm (Nucleic Acid [1]) of 18 °C.
In the case of `Oc1ccc2c3c1O[C@H]1c4[nH]c5ccccc5c4C[C@@]4(O)[C@@H](C2)N(CC2CC2)CC[C@]314` [NALTRINDOLE], the Ki [3] is reported as 30 nM.
Compound `Cn1cc(NC(=O)c2cc(NC(=O)CNC(=N)N)cn2C)cc1C(=O)NCCC(=N)N` has a Ratio (Nucleic Acid [2]) of 0.28.
Compound `CN1CCN(c2ccc3[nH]c(-c4ccc5[nH]c(-c6ccc(O)cc6)nc5c4)nc3c2)CC1` has a Ratio (Nucleic Acid [2]) of 2.4.
`CN1CC[C@]23c4c5ccc(O)c4O[C@H]2c2[nH]c4ccccc4c2C[C@@]3(O)[C@H]1C5` [OXYMORPHINDOLE] was tested, and the Ki [4] was 0.8 nM and the Ki [3] was 2170 nM.
For `Cn1cc(NC(=O)c2cc(NC(=O)c3cc(NC=O)cn3C)cn2C)cc1C(=O)NCCC(=N)N`, the Ratio (Nucleic Acid [2]) was 4.4.
`CC[n+]1c(-c2ccccc2)c2cc(N)ccc2c2ccc(N)cc21` gave a ΔTm (Nucleic Acid [5]) of 17 °C.
Work on `N=C(N)c1ccc(/N=N/Nc2ccc(C(=N)N)cc2)cc1` yielded a Ratio (Nucleic Acid [2]) of 0.32.
Work on `O=C1c2c(O)ccc(O)c2C(=O)c2c(NCCNCCO)ccc(NCCNCCO)c21` yielded a ΔTm (Nucleic Acid [1]) of 23 °C.
